Where a SMILES comes first, the peptide text is derived from it. Bridges are numbered along the chain shown (N, C = ends). Where no end group is shown, it is not given here. [ ]: non-standard residue; d: D form. The star is where a group is joined. R8 = C=CCCCCCC[C@@](C)(N)C(=O)O; S5 = C=CCCC[C@](C)(N)C(=O)O; dNle = CCCC[C@@H](N)C(=O)O; Nle = CCCC[C@H](N)C(=O)O; Octanoyl = CCCCCCCC(=O)*; Sar = CNCC(=O)O
Key:
LPL from bovine milk = molecular target: T1, LPL from bovine milk (Bos taurus, UniProt P11151); experiment: LPL activation assay (generation of NEFA); format: biochemical; details: 0-10 μM peptide, 7.45 nM LPL, apoC-II deficient plasma, 37° C. for 1 hour, NEFA measured
T1 construct: 7.45 nM of LPL from bovine milk (Sigma-Aldrich); purchased Sigma-Aldrich; host or cells: bovine milk
T1 sequence (P11151 29-478): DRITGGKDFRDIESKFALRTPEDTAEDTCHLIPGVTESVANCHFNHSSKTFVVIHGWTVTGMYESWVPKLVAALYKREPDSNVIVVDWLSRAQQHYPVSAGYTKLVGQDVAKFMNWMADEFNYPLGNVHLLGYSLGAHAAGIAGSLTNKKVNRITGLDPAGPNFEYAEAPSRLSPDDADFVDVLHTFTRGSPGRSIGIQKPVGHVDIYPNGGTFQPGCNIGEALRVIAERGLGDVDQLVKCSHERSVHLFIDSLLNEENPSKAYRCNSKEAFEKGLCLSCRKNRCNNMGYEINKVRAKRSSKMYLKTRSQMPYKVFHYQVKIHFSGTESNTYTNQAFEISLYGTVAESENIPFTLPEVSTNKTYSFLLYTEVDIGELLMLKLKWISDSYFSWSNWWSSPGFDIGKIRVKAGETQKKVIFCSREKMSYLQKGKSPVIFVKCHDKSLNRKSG
Protocol: (§1) LPL activity was determined by measuring the generation of NEFA. In a 96-well plate, 0-10 μM of an apoC-II mimetic peptide, 7.45 nM of LPL from bovine milk (Sigma-Aldrich), apoC-II deficient ethylenediaminetetraacetic acid (EDTA)-plasma (diluted with PBS to a final TG concentration of 3 mg/dL), 10 IU/ml heparin, 1% bovine serum albumin (BSA) (ICN Biomedicals), and PBS (Life Technologies) were combined in a final reaction volume of 50 μL, pre-incubated on ice for 30 minutes, and incubated at 37° C. for 1 hour. NEFA were measured with a coupled enzyme reaction (FUJIFILM Wako Diagnostics), in a SpectraMax Plus 384 Microplate Reader.

Pepsin A = molecular target: T2, Pepsin A (Sus scrofa, UniProt P00791); experiment: LPL activation ability following pepsin treatment; format: in vitro ADME; details: 1 mg/ml Pepsin A, pH 1.92, 1 hour at 37° C.; final concentration 10 µM of peptides
T2 construct: purchased Sigma Aldrich P6887-1G
T2 sequence (P00791 60-385): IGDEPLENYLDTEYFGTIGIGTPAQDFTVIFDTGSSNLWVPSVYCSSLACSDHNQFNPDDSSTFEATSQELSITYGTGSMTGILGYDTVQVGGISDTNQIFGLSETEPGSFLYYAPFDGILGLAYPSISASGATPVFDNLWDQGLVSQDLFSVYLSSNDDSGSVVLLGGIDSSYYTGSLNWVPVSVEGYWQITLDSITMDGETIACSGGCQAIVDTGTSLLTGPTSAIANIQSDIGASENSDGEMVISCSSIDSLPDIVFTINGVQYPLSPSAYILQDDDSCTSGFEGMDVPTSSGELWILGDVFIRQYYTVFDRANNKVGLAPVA
Protocol: as §1
Peptide resistance to proteolysis was also tested. Peptides at 0.1 mM concentration were incubated at 37° C. in 20 mM ammonium bicarbonate buffer at pH 8.2 with 10 μg/ml trypsin or […] Proteinase K. The amount of intact peptide was monitored over 24-hour time period by MALDI-TOF using internal standards (Bombesin, ACTH (1-17), ACTH (18-39), and Insulin) to quantify the relative amount of peptide in each sample. As shown in FIGS. 16A-16D, the tested peptides had varying degrees of resistance to trypsin and proteinase K. In addition, peptides were tested for LPL activation ability following pepsin treatment. Peptides (1 mM stock) were prepared in 5 mM TRIS, pH 8.2. […] In vitro generated NEFA were measured by the colorimetric assay.

[1] = DMPC vesicle solubilization assay; details: 0.5 mM peptides, DMPC vesicles 0.5 mg/mL in PBS pH 7.4, absorbance at 660 nm for 1 hour at 24° C.
Protocol: Tested peptides were able to solubilize DPMC vesicles (FIG. 15). […] PBS as a negative control or 1% Triton as a positive control or 0.5 mM peptides were added to homogenous DMPC (Avanti 850345C) vesicles (0.5 mg/mL) in PBS, pH 7.4. In vitro turbidity change was monitored by following the absorbance at 660 nm for 1 hour at 24° C. Absorbance over time was plotted and the areas under the curve (AOC) were calculated.

apoC-II knockout mice = experiment: Peptide activity in vivo in apoC-II knockout mice; details: single intraperitoneal injection 5 μmole/kg, blood at 1, 3, 6 and 24 hours; for triglycerides: compared to control
Protocol: A study was performed comparing the effect of D6-PV (SEQ ID NO: 15) and SPH2S (SEQ ID NO: 5) peptides in apoC-II knockout mice. Mice were given a single intraperitoneal injection of the peptide (5 μmole/kg) and blood was collected at 1 hour, 3 hours, 6 hours and 24 hours after injection. Triglycerides, total cholesterol, and non-esterified fatty acids (NEFA) were measured.

Octanoic -A(Nle)(R8)TYTGIF(S5)DQVLSVLK(Sarcosine)ee [SEQ ID NO: 37]
efficacy for activation of LPL (LPL from bovine milk): did not affect LPL activation

EK(R8)RDLYSK(S5)TAAFSTYTFIFTDQVLSVLKGEE (EK[R8]RDLYSK[S5]TAAFSTYTFIFTDQVLSVLKGEE; staple 3-10) [SEQ ID NO: 26]
efficacy for activation of LPL (LPL from bovine milk): did not affect peptide efficacy

a(nle)(R8)TYTGIF(S5)DQVLSVLk(Sarcosine)ee ([dA][dNle][R8]TYTGIF[S5]DQVLSVL[dK][Sar][dE][dE]; staple 3-10) [SEQ ID NO: 36]
efficacy for activation of LPL (LPL from bovine milk): decreased LPL activation abilities

CCCC[C@H](NC(=O)[C@H](C)NC(C)=O)C(=O)N[C@]1(C)CCCCCCC=CCCC[C@@](C)(C(=O)N[C@@H](CC(=O)O)C(=O)N[C@@H](CCC(N)=O)C(=O)N[C@H](C(=O)N[C@@H](CC(C)C)C(=O)N[C@@H](CO)C(=O)N[C@H](C(=O)N[C@@H](CC(C)C)C(=O)N[C@@H](CCCCN)C(=O)N(C)CC(=O)N[C@H](CCC(=O)O)C(=O)N[C@H](CCC(=O)O)C(=O)O)C(C)C)C(C)C)NC(=O)[C@H](Cc2ccccc2)NC(=O)[C@H]([C@@H](C)CC)NC(=O)CNC(=O)[C@H]([C@@H](C)O)NC(=O)[C@H](Cc2ccc(O)cc2)NC(=O)[C@H]([C@@H](C)O)NC1=O [SEQ ID NO: 34, Ac-A(Nle)(R8)TYTGIF(S5)DQVLSVLK(Sarcosine)ee] (Ac-A[Nle][R8]TYTGIF[S5]DQVLSVLK[Sar][dE][dE]-OH; staple 3-10; C-terminus assumed)
efficacy for activation of LPL (LPL from bovine milk): did not affect LPL activation | LPL activation after pepsin treatment (Pepsin A): showed resistance to pepsin treatment

CCCC[C@H](NC(=O)[C@H](C)N)C(=O)N[C@]1(C)CCCCCCC=CCCCC2(CCCC=CCCCCCC[C@@](C)(C(=O)N[C@@H](CCCCN)C(=O)N(C)CC(=O)N[C@H](CCC(=O)O)C(=O)N[C@H](CCC(=O)O)C(=O)O)NC(=O)[C@H](C(C)C)NC(=O)[C@H](CO)NC(=O)[C@H](CC(C)C)NC(=O)[C@H](C(C)C)NC(=O)[C@H](CCC(N)=O)NC(=O)[C@H](CC(=O)O)NC2=O)NC(=O)[C@H](Cc2ccccc2)NC(=O)[C@H]([C@@H](C)CC)NC(=O)CNC(=O)[C@H]([C@@H](C)O)NC(=O)[C@H](Cc2ccc(O)cc2)NC(=O)[C@H]([C@@H](C)O)NC1=O (stereo partly drawn) [SEQ ID NO: 18, A(Nle)(R8)TYTGIF(B5)DQVLSV(S8)K(Sarcosine)ee-COOH]
LPL activation after pepsin treatment (Pepsin A): showed resistance to pepsin treatment

AMSTYTGIFTDQVLSVLKGEE [SEQ ID NO: 14, truncated ApoC-II peptide]
solubilization of DMPC vesicles [1]: did not

a(nle)(R8)TYTGIF(S5)DQVLSVLK(Sarcosine)ee ([dA][dNle][R8]TYTGIF[S5]DQVLSVLK[Sar][dE][dE]; staple 3-10) [SEQ ID NO: 35]
efficacy for activation of LPL (LPL from bovine milk): decreased LPL activation abilities

EK(R8)RDLYSK(S5)TAAFSTYFGIFTDQVLSVLKGEE (EK[R8]RDLYSK[S5]TAAFSTYFGIFTDQVLSVLKGEE; staple 3-10) [SEQ ID NO: 25]
efficacy for activation of LPL (LPL from bovine milk): did reduce the efficacy

STAAM(R8)TYTGIF(S5)DQVLSVLKGEE (STAAM[R8]TYTGIF[S5]DQVLSVLKGEE; staple 6-13) [SEQ ID NO: 5]
non-esterified fatty acids (NEFA) (apoC-II knockout mice): more effective than D6-PV | total cholesterol (apoC-II knockout mice): more effective than D6-PV at decreasing total cholesterol | triglycerides (apoC-II knockout mice): decreased triglycerides to a similar extent | efficacy for activation of LPL (LPL from bovine milk): increased efficacy

DYLKEVFEKLRDLYEKFTPAVSTYTGIFTDQVLSVLKGEE [SEQ ID NO: 15, control D6-PV peptide, reference compound]
triglycerides (apoC-II knockout mice): decreased triglycerides to a similar extent

Octanoic-(R8)TYTGIF(S5)DQVLSVLK(Sarcosine)eeee (Octanoyl-[R8]TYTGIF[S5]DQVLSVLK[Sar][dE][dE][dE][dE]; staple 1-8) [SEQ ID NO: 39]
efficacy for activation of LPL (LPL from bovine milk): decreased peptide activity
